Converted amounts (≈) assume the structure as drawn.
What was measured:
purified human FAS = target: T1, purified human FAS (Homo sapiens, UniProt P49327); experiment: FAS enzymatic activity (malonyl-CoA dependent NADPH oxidation); format: biochemical; conditions: for IC50: (SB)
T1 construct: Human FAS was purified from cultured ZR-75-1 human breast cancer cells; endogenous in cells; host or cells: ZR-75-1 human breast cancer cells (ATCC); enzyme purified by PEG precipitation and Mono Q chromatography
T1 sequence (P49327 whole entry): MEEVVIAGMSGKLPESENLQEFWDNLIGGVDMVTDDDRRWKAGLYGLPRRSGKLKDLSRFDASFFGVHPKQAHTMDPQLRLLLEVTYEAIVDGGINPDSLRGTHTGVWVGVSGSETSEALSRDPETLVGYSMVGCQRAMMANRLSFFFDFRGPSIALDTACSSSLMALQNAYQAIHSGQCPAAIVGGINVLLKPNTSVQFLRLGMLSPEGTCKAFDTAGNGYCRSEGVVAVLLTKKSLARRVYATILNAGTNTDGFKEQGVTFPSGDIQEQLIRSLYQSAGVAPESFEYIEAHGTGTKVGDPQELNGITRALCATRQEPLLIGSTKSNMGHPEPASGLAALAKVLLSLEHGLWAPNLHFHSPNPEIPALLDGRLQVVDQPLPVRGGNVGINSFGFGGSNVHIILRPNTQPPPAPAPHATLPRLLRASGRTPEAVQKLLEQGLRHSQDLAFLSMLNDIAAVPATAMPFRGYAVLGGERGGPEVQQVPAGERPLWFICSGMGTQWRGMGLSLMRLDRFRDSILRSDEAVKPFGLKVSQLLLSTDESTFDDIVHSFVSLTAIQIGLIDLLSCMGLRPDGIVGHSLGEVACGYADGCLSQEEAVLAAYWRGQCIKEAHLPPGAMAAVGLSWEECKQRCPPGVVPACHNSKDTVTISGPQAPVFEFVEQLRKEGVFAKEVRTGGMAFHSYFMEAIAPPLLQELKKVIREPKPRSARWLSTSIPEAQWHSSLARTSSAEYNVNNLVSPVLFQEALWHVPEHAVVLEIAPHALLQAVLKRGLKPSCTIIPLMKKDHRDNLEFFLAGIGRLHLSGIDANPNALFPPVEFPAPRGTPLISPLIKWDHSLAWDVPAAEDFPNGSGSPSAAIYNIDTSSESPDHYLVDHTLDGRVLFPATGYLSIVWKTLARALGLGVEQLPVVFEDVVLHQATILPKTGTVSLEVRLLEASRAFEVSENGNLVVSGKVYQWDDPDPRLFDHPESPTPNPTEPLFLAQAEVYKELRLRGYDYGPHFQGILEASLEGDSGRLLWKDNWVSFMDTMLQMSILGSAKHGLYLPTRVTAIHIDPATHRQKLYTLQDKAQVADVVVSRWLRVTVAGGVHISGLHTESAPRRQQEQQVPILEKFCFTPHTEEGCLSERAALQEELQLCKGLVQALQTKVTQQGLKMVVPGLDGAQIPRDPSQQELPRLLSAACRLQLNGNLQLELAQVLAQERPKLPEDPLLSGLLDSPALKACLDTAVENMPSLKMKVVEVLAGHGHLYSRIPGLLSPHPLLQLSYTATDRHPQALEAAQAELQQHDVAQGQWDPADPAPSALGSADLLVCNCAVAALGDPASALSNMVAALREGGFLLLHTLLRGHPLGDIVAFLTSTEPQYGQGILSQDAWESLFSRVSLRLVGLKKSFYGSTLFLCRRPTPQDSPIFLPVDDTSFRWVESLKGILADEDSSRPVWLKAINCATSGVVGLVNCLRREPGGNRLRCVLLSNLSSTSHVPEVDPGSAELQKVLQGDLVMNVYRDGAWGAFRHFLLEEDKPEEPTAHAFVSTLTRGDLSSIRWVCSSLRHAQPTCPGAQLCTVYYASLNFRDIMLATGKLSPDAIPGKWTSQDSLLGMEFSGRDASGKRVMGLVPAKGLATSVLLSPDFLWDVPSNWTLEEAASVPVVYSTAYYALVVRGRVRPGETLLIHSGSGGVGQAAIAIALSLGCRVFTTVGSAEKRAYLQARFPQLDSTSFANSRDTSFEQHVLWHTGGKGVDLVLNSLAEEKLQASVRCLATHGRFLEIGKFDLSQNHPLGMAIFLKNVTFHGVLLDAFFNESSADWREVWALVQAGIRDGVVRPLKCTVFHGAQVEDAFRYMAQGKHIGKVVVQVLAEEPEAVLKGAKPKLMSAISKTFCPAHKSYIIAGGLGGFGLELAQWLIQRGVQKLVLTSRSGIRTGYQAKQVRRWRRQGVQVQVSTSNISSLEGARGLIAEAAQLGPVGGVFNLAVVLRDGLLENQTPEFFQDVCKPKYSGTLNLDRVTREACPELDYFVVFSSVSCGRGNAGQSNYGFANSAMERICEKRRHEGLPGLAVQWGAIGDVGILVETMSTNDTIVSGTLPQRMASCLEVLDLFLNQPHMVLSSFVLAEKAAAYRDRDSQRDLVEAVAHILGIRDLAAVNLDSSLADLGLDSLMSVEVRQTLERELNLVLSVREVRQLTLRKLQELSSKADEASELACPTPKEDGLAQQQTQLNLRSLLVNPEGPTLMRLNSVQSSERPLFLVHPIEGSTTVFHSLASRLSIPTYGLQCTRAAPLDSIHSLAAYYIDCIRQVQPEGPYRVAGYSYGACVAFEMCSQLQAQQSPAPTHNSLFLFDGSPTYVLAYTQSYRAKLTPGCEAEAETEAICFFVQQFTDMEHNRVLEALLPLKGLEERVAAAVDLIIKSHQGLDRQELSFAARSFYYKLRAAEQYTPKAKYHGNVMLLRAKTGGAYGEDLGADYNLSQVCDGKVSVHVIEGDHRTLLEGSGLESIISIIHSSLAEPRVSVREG
Protocol: Purification of FAS from ZR-75-1 Human Breast Cancer Cells.
Human FAS was purified from cultured ZR-75-1 human breast cancer cells obtained from the American Type Culture Collection. The procedure, adapted from Linn et al., 1981, and Kuhajda et al., 1994, utilizes hypotonic lysis, successive polyethyleneglycol (PEG) precipitations, and anion exchange chromatography. ZR-75-1 cells are cultured at 37° C. with 5% CO2 in RPMI culture medium with 10% fetal bovine serum, penicillin and streptomycin.
Ten T150 flasks of confluent cells are lysed with 1.5 ml lysis buffer (20 mM Tris-HCl, pH 7.5, 1 mM EDTA, 0.1 mM phenylmethanesulfonyl fluoride (PMSF), 0.1% Igepal CA-630) and dounce homogenized on ice for 20 strokes. The lysate is centrifuged in JA-20 rotor (Beckman) at 20,000 rpm for 30 minutes at 4° C. and the supernatant is brought to 42 ml with lysis buffer. A solution of 50% PEG 8000 in lysis buffer is added slowly to the supernatant to a final concentration of 7.5%. After rocking for 60 minutes at 4° C., the solution is centrifuged in JA-20 rotor (Beckman) at 15,000 rpm for 30 minutes at 4° C. Solid PEG 8000 is then added to the supernatant to a final concentration of 15%. After the rocking and centrifugation is repeated as above, the pellet is resuspended overnight at 4° C. in 10 ml of Buffer A (20 mM K2HPO4, pH 7.4). After […] filtration, the protein solution is applied to a Mono Q 5/5 anion exchange column (Pharmacia). The column is washed for 15 minutes with buffer A at 1 ml/minute, and bound material is eluted with a linear 60-ml gradient over 60 minutes to 1 M KCl. FAS (MW˜270 kD) typically elutes at 0.25 M KCl in three 0.5 ml fractions identified using 4-15% SDS-PAGE with Coomassie G250 stain (Bio-Rad). FAS protein concentration is determined using the Coomassie Plus Protein Assay Reagent (Pierce) according to manufacturer's specifications using BSA as a standard. This procedure results in substantially pure preparations of FAS (>95%) as judged by Coomassie-stained gels.
Measurement of FAS Enzymatic Activity and Determination of the IC50 of the Compounds
FAS activity is measured by monitoring the malonyl-CoA dependent oxidation of NADPH spectrophotometrically at OD340 in 96-well plates (Dils et al and Arslanian et al, 1975). Each well contains 2 μg purified FAS, 100 mM K2HPO4, pH 6.5, 1 mM dithiothreitol (Sigma), and 187.5 μM β-NADPH (Sigma). Stock solutions of inhibitors are prepared in DMSO at 2, 1, and 0.5 mg/ml resulting in final concentrations of 20, 10, and 5 μg/ml when 1 μl of stock is added per well. For each experiment, cerulenin (Sigma) is run as a positive control along with DMSO controls, inhibitors, and blanks (no FAS enzyme) all in duplicate.
The assay is performed on a Molecular Devices SpectraMax Plus Spectrophotometer. The plate containing FAS, buffers, inhibitors, and controls are placed in the spectrophotometer heated to 37° C. Using the kinetic protocol, the wells are blanked on duplicate wells containing 100 μl of 100 mM K2HPO4, pH 6.5 and the plate is read at OD340 at 10 sec intervals for 5 minutes to measure any malonyl-CoA independent oxidation of NADPH. The plate is removed from the spectrophotometer and malonyl-CoA (67.4 μM, final concentration per well) and […] (61.8 μM, final concentration per well) are added to each well except to the blanks. The plate is read again as above with the kinetic protocol to measure the malonyl-CoA dependent NADPH oxidation. The difference between the Δ OD340 for the malonyl-CoA dependent and non-malonyl-CoA dependent NADPH oxidation is the specific FAS activity. Because of the purity of the FAS preparation, non-malonyl-CoA dependent NADPH oxidation is negligible.
The IC50 for the compounds against FAS is determined by plotting the Δ OD340 for each inhibitor concentration tested, performing linear regression and computing the best-fit line, r^2 values, and 95% confidence intervals. The concentration of compound yielding 50% inhibition of FAS is the IC50. […]

[1] = tested on: Staphylococcus aureus (ATCC #29213); experiment: Broth microdilution MIC, S. aureus; format: cell-based
Protocol: (§1) A broth microdilution assay is used to assess the antimicrobial activity of the compounds. Compounds are tested at twofold serial dilutions, and the concentration that inhibits visible growth (OD600 at 10% of control) is defined as the MIC. Microorganisms tested include Staphylococcus aureus (ATCC #29213), Enterococcus faecalis (ATCC #29212), Pseudomonas aeruginosa (ATCC #27853), and Escherichia coli (ATCC #25922). The assay is performed in two growth media, Mueller Hinton Broth and Trypticase Soy Broth.
(§2) A blood (Tsoy/5% sheep blood) agar plate is inoculated from frozen stocks maintained in T soy broth containing 10% glycerol and incubated overnight at 37° C. Colonies are suspended in sterile broth so that the turbidity matches the turbidity of a 0.5 McFarland standard. The inoculum is diluted 1:10 in sterile broth (Mueller Hinton or Trypticase soy) and 195 ul is dispensed per well of a 96-well plate. […]
(§3) After 24 hours of incubation at 37° C., plates are read at OD600 on a Molecular Devices SpectraMax Plus Spectrophotometer. Average OD600 values are computed using SOFTmax Pro Software (Molecular Devices) and MIC values are determined by linear regression analysis using Prism version 3.02 (Graph Pad Software, San Diego). […]

[2] = tested on: Pseudomonas aeruginosa (ATCC #27853); experiment: Broth microdilution MIC, P. aeruginosa; format: cell-based
Protocol: as §1, §2, §3

IC50 (purified human FAS)	Compound	FAS (IC50) (purified human FAS)	SA/MH (MIC) ([1]; Mueller Hinton Broth)	MIC ([1]; Staphylococcus aureus, ATCC29213, Trypticase Soy Broth, read-out: SA/Tsoy (MIC))	PSAE/MH (MIC) ([2]; Mueller Hinton Broth)	PSAE/Tsoy ([2]; Trypticase Soy Broth)
854 µM	CCCCCCCCCCC1(C)SC(=O)C(C)(C)C1=O (centres unmarked) [Compound 12, 3,3,5-Trimethyl-5-decyl-thiophene-2,4-dione]					
804 µM	C=CCC1(CC=C)C(=O)SC(C)(CCCCCCCCCC)C1=O (centres unmarked) [Compound 15, 3,3-Diallyl-5-methyl-5-decyl-thiophene-2,4-dione]					

Compound	IC50 (purified human FAS)	FAS (IC50) (purified human FAS)	SA/MH (MIC) ([1]; Mueller Hinton Broth)	MIC ([1]; Staphylococcus aureus, ATCC29213, Trypticase Soy Broth, read-out: SA/Tsoy (MIC))	PSAE/MH (MIC) ([2]; Mueller Hinton Broth)	PSAE/Tsoy ([2]; Trypticase Soy Broth)
C=CCC1(CC=C)C(=O)SC(C)(CCCCCCCC)C1=O (racemic) [Compound 4, 3,3-Diallyl-5-methyl-5-octyl-thiophene-2,4-dione]	884 µM	Neg	Neg	98 µg/mL (≈ 304 µM)	Neg	Neg

Reference: patent US20090005435A1, “Novel Compounds, Pharmaceutical Compositions Containing Same, and Methods of Use for Same” (priority 2004, published 2009)
